In brackets after ≈: the same amount, converted by molar mass.
Assays:
E. coli K12 PBP3 = molecular target: T1, E. coli K12 PBP3 (Escherichia coli, UniProt P0AD68); assay: biochemical; format: binding
T1 construct: made in house
Summary of the method: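 Fluorescence polarization (ex 490/em 520 nm) competition of inhibitors against Bocillin-FL at 0.1 μM, read up to 60 min. Final PBP levels: E. coli PBP3 1.5 μM; A. baumannii PBP2 2.5 μM, PBP3 0.2 μM in Tris pH 8.0/NaCl/glycerol/Tween 20; N. gonorrhoeae PBP2 […] in Hepes pH 8.0/NaCl/glycerol. EC50 = concentration halving PBP-bound Bocillin-FL.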

A. baumannii ATCC 19606 = assay: Broth microdilution MIC in CAMHB; format: cell-based; conditions: Acinetobacter baumannii, ATCC19606; MHB; read-out: Minimum Inhibitory Concentration, A. baumannii ATCC 19606
Summary of the method: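 CLSI microdilution; CAMHB; inoculum 2-8×10^5 CFU/mL from 3-5 h 37° C culture; 2-fold compound series; 16-20 h, 37° C; MIC = lowest well without visible growth.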

E. coli 901C = assay: Broth microdilution MIC in CAMHB; format: cell-based; conditions: Escherichia coli; E. coli 901C (hyper-permeable); MHB; read-out: Minimum Inhibitory Concentration, E. coli 901C
Summary of the method: (§1)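 MIC, read by eye, is the lowest compound concentration giving no bacterial growth after 16-20 h at 37° C. Test compounds are serially diluted 2-fold in CAMHB and seeded with 2-8×10^5 CFU/mL of bacteria taken from a 3-5 h shaking culture, following CLSI methods.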

E. coli AG100 = assay: Broth microdilution MIC in CAMHB; format: cell-based; conditions: Escherichia coli; E. coli AG100 (wild-type parent); MHB; read-out: Minimum Inhibitory Concentration, E. coli AG100
Summary of the method: as §1

[1] = tested on: K. pneumoniae 848844 producing SHV-11 and KPC-2; assay: Broth microdilution MIC in CAMHB; format: cell-based; conditions: Klebsiella pneumoniae, read-out: Minimum Inhibitory Concentration, K. pneumoniae 848844
Summary of the method: as §1

[2] = tested on: K. pneumoniae SI-117 producing VIM-1; assay: Broth microdilution MIC in CAMHB; format: cell-based; conditions: Klebsiella pneumoniae, read-out: Minimum Inhibitory Concentration, K. pneumoniae SI-117
Summary of the method: as §1

[3] = tested on: K. pneumoniae UMM producing SHV-5 and KPC-2; assay: Broth microdilution MIC in CAMHB; format: cell-based; conditions: Klebsiella pneumoniae, read-out: Minimum Inhibitory Concentration, K. pneumoniae UMM
Summary of the method: as §1

P. aeruginosa ATCC 27853 = assay: Broth microdilution MIC in CAMHB; format: cell-based; conditions: Pseudomonas aeruginosa, ATCC27853; MHB; read-out: Minimum Inhibitory Concentration, P. aeruginosa ATCC 27853
Summary of the method: as §1

P. aeruginosa ATCC 35151 = assay: Broth microdilution MIC in CAMHB; format: cell-based; conditions: Pseudomonas aeruginosa, ATCC35151; MHB; hyper-permeable strain; read-out: Minimum Inhibitory Concentration, P. aeruginosa ATCC 35151
Summary of the method: as §1

T1 sequence (P0AD68 1-577): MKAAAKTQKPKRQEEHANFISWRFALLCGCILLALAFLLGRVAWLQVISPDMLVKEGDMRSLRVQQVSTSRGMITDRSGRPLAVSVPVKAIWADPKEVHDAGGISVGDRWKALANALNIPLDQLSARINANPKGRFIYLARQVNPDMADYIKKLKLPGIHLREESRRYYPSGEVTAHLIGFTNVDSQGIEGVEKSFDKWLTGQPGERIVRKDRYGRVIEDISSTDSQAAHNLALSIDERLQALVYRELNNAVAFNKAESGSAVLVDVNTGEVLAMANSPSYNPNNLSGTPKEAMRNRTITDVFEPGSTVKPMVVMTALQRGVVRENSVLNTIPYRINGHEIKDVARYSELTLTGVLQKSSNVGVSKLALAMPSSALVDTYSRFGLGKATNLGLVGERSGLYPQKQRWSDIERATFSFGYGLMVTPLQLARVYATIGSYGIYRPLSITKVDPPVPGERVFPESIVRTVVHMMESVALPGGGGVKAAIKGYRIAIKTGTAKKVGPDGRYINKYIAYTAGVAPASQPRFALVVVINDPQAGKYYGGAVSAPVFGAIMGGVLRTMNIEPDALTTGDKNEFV

| Compound | EC50 (E. coli K12 PBP3) [µM] | MIC (A. baumannii ATCC 19606) [µg/mL] | MIC (E. coli 901C) [µg/mL] | MIC (E. coli AG100) [µg/mL] | MIC [1] [µg/mL] | MIC [2] [µg/mL] | MIC [3] [µg/mL] | MIC (P. aeruginosa ATCC 27853) [µg/mL] | MIC (P. aeruginosa ATCC 35151) [µg/mL] |
| --- | --- | --- | --- | --- | --- | --- | --- | --- | --- |
| CCN1CCN(C(=O)NC(C(=O)N[C@H]2Cc3cccc(C(=O)O)c3OB2O)c2ccc(O)cc2O)C(=O)C1=O (stereo partly drawn) [Example 69, (3R)-3-(2-(2,4-dihydroxyphenyl)-2-(4-ethyl-2,3-dioxopiperazine-1-carboxamido)acetamido)-2-hydroxy-3,4-dihydro-2H-benzo[e][1,2]oxaborinine-8-carboxylic acid] | < 30 | > 128 | < 0.25 | 32 to 64 (≈ 59.2 to 118 µM) | 32 to 64 (≈ 59.2 to 118 µM) | 32 to 64 (≈ 59.2 to 118 µM) | 32 to 64 (≈ 59.2 to 118 µM) | > 128 | 8 to 16 (≈ 14.8 to 29.6 µM) |
| NC(=O)c1ccc(C(NC(=O)N2CCN(CCF)C(=O)C2=O)C(=O)N[C@H]2Cc3cccc(C(=O)O)c3OB2O)cc1O (stereo partly drawn) [Example 46, (3R)-3-(2-(4-carbamoyl-3-hydroxyphenyl)-2-(4-(2-fluoroethyl)-2,3-dioxopiperazine-1-carboxamido)acetamido)-2-hydroxy-3,4-dihydro-2H-benzo[e][1,2]oxaborinine-8-carboxylic acid] | < 30 | > 128 | 2 to 4 (≈ 3.42 to 6.83 µM) | 32 to 64 (≈ 54.7 to 109 µM) | > 128 | 32 to 64 (≈ 54.7 to 109 µM) | 32 to 64 (≈ 54.7 to 109 µM) | > 128 | < 0.25 |
| CCN1CCN(C(=O)NC(C(=O)N[C@H]2Cc3cccc(C(=O)O)c3OB2O)c2ccc(O)c(NS(C)(=O)=O)c2)C(=O)C1=O (stereo partly drawn) [Example 22, (3R)-3-(2-(4-ethyl-2,3-dioxopiperazine-1-carboxamido)-2-(4-hydroxy-3-(methylsulfonamido)phenyl)acetamido)-2-hydroxy-3,4-dihydro-2H-benzo[e][1,2]oxaborinine-8-carboxylic acid] | < 30 | > 128 | < 0.25 | 32 to 64 (≈ 51.8 to 104 µM) | > 128 | 32 to 64 (≈ 51.8 to 104 µM) | 32 to 64 (≈ 51.8 to 104 µM) | > 128 | 0.5 to 1 (≈ 0.81 to 1.62 µM) |
| NCCN1CCN(C(=O)N[C@H](C(=O)N[C@H]2Cc3cccc(C(=O)O)c3OB2O)c2ccc(C(=O)O)cc2)C(=O)C1=O (single isomer, unassigned) [Example 83] | 30 to 500 | > 128 | < 0.25 | 32 to 64 (≈ 56.4 to 113 µM) | > 128 | > 128 | 32 to 64 (≈ 56.4 to 113 µM) | 32 to 64 (≈ 56.4 to 113 µM) | 0.5 to 1 (≈ 0.881 to 1.76 µM) |
| NCCN1CCN(C(=O)N[C@@H](C(=O)N[C@H]2Cc3cccc(C(=O)O)c3OB2O)c2ccc(O)cc2Cl)C(=O)C1=O (single isomer, unassigned) [Example 86] | < 30 | > 128 | 2 to 4 (≈ 3.49 to 6.97 µM) | 32 to 64 (≈ 55.8 to 112 µM) | 32 to 64 (≈ 55.8 to 112 µM) | 32 to 64 (≈ 55.8 to 112 µM) | 32 to 64 (≈ 55.8 to 112 µM) | > 128 | 0.5 to 1 (≈ 0.871 to 1.74 µM) |
| CCN1CCN(C(=O)NC(C(=O)N[C@H]2Cc3cccc(C(=O)O)c3OB2O)c2cccc(NC(=O)c3ccc(O)c(O)c3Cl)c2)C(=O)C1=O (stereo partly drawn) [Example 73, (3R)-3-(2-(3-(2-chloro-3,4-dihydroxybenzamido)phenyl)-2-(4-ethyl-2,3-dioxopiperazine-1-carboxamido)acetamido)-2-hydroxy-3,4-dihydro-2H-benzo[e][1,2]oxaborinine-8-carboxylic acid] | < 30 | 0.5 to 1 (≈ 0.721 to 1.44 µM) | < 0.25 | 2 to 4 (≈ 2.88 to 5.76 µM) | 8 to 16 (≈ 11.5 to 23.1 µM) | 8 to 16 (≈ 11.5 to 23.1 µM) | 0.5 to 1 (≈ 0.721 to 1.44 µM) | 2 to 4 (≈ 2.88 to 5.76 µM) | 0.5 to 1 (≈ 0.721 to 1.44 µM) |
| NCCCN1CCN(C(=O)NC(C(=O)N[C@H]2Cc3cccc(C(=O)O)c3OB2O)c2ccc(C(N)=O)c(O)c2)C(=O)C1=O (stereo partly drawn) [Example 47, (3R)-3-(2-(4-(3-aminopropyl)-2,3-dioxopiperazine-1-carboxamido)-2-(4-carbamoyl-3-hydroxyphenyl)acetamido)-2-hydroxy-3,4-dihydro-2H-benzo[e][1,2]oxaborinine-8-carboxylic acid] | 30 to 500 | > 128 | 8 to 16 (≈ 13.4 to 26.8 µM) | > 128 | > 128 | > 128 | > 128 | 32 to 64 (≈ 53.7 to 107 µM) | < 0.25 |

From patent publication US20230114728A1 (Venatorx Pharmaceuticals, Inc., priority 2019, published 2023)
